In the NIST ThermoML archive (doi:10.1021/acs.jced.8b01174):

What was measured:
[1] = 97.7 kPa, Liquid; for viscosity: Concentric cylinders viscometry; for mass density: Vibrating tube method
[2] = molar heat capacity at constant pressure; details: 100 kPa, Liquid, DSC
[3] = wn = mass fraction of the nth substance listed; details: 97.7 kPa, Liquid, w2 = 0.874; for viscosity: Concentric cylinders viscometry; for mass density: Vibrating tube method

O [water]
Details | mass density, [1] [kg/m3] | molar heat capacity at constant pressure, [2] [J/K/mol] | viscosity, [1] [mPa·s]
293.15 K | 998 | – | 1
298.15 K | – | 74.8 | –
303.15 K | 996 | – | 0.8
308.15 K | – | 74.78 | –
313.15 K | 992 | – | 0.65
318.15 K | – | 74.93 | –
323.15 K | 988 | – | 0.55
328.15 K | – | 75.02 | –
333.15 K | 983 | – | 0.47
338.15 K | – | 75.07 | –
343.15 K | 978 | – | 0.4
348.15 K | – | 75.21 | –
353.15 K | 972 | – | 0.35
363.15 K | 965 | – | 0.31

C1CNCCN1 [piperazine] + CN(CCO)CCO
[3]
Details | mass density [kg/m3] | viscosity [mPa·s]
293.15 K | 1036 | 150.46
303.15 K | 1029 | 79.46
313.15 K | 1021 | 45.07
323.15 K | 1014 | 27.24
333.15 K | 1006 | 17.41
343.15 K | 999 | 11.68
353.15 K | 991 | 8.18
363.15 K | 983 | 5.93
